Data taken from US20240343828A1, “SPINK1 AS A TARGET FOR THERAPEUTIC INTERVENTION IN LUNG DISEASES” (Northwestern University, priority 2023, published 2024).

Tests used:
mouse lung [1] = assay: Sircol assay of collagen content; assay type: in vivo
Text: To further understand the impact of Spink1 on lung fibrosis, Applicant performed the molecular experiment to mutate Spink amino acid sequence. Applicant generated two Spink1 variants (protein 2: R19Y and protein 3: R19A) to denote the ones with activity preserved (protein 2: R19Y) and activity ablation (protein 3: R19A). Applicant used these two variants, together with Spink1 wild type protein and PBS, to conduct the animal experiments using healthy mice (FIG. 15).

mouse = conditions: mice with bleomycin pre-treatment
Experimental: Two sets of experiment were set up: one set with bleomycin pretreatment and the other without bleomycin pretreatment(FIG. 10). Applicant labeled as the groups as: PBS, recombinant Spink1 protein, bleomycin and the combo of bleomycin and recombinant Spink1 protein (the last two groups are the one with bleomycin pretreatment).
For experiment one, Applicant have four groups as illustrated in FIG. 10. Intrathecal administration was used in this study and 20 ug recombinant protein was injected each time. For the group without bleomycin pretreatment, the animals were injected every third day until they were killed at day 22. For the group with bleomycin pretreatment, the animals were pretreated with bleomycin and then the first dose of recombinant Spink1 protein was injected at day 14 after the bleomycin pretreatment. Another 4 doses were given at day 21, day 24, day 27 and day 30. The animals were killed at day 34 and the tissues were harvested and frozen/fixed for further analysis.

fibroblasts [2] = assay: Fibroblast proliferation with Spink1 incubation; assay type: cell-based
Experimental: FIGS. 23A-23C: In vitro experiment to validate the functional role of Spink1 in mediating stromal cell activity. Gene expression changes in fibroblasts with the incubation of different concentration of Spink1 protein (FIG. 23A). The proliferation rate of fibroblasts with the incubation of Spink1 (FIG. 23B). The proliferation rate was calculated as the difference between end point and start point, followed by the division of start point value. Zero proliferation rate indicates no proliferation is detected. The changes of aSMA gene in fibroblasts with the incubation of Spink1 and EGFR inhibitor of AG1468 (FIG. 23C).
Applicant also tested the proliferation activity of fibroblast with the incubation of Spink1. […] Furthermore, Applicant hypothesized that the differentiation of fibroblast toward aSMA+ cells could be EGFR pathway dependent.

mouse lung [3] = assay: scRNA-seq analysis of lung tissues from the animal experiment; assay type: in vivo
Text: Using the lung tissues collected from our animal experiment, Applicant performed the scRNA-seq analysis and identified 36 different cell types within epithelial, endothelial, stromal and immune compartments (FIG. 17A).
Since AT2s are the fibrosis driver^21,23, Applicant performed the differential gene expression between bleomycin vs combo treatment to identify the potential genes that are invoked by Spink1.

fibroblasts [4] = assay: In vitro fibroblast gene expression with Spink1 incubation; assay type: cell-based; conditions: different Spink1 concentrations, 24 hours
Experimental: Applicant performed an in vitro experiment to further validate the functional role of SPINK1 in mediating fibroblasts and aSMA+ stromal cells. Applicant incubated fibroblasts with different concentration of recombinant mouse Spink1 protein for 24 hours and tested the gene expression level. […] However, the expression level of aSMA was elevated in response to Spink1 treatment (FIG. 23A). This implied that Spink1 could drive the differentiation of fibroblast toward aSMA+ stromal cells.

mouse lung [5] = assay: Trichome staining of mouse lung; assay type: in vivo; conditions: Spink1-treated mouse lungs
Experimental: (§1) The H&E histology experiment and trichome staining assay were conducted in histology core at northwestern university.

mouse lung [6] = assay: H&E staining of mouse lung; assay type: in vivo; conditions: Spink1-treated mouse lungs
Experimental: as §1

[7] = pathway enrichment, PBS vs Spink1 treatment

## protein 3: R19A: Spink1 variant R19A with activity ablation (AKVTGKEASCHDAVAGCPAIYDPVCGTDGITYANECVLCFENRKRIEPVLIRKGGPC; UniProt P09036 24-80, looked up, variant R19A)
Mouse lung [1]; healthy mice, 6 doses, compared with wild type Spink1 and PBS
  collagen accumulation (Sircol), Spink1 variants: fails to induce collagen accumulation

## Spink1: recombinant mouse Spink1 (Spink3) protein, homologue of human SPINK1, Serine protease inhibitor Kazal-type 1 (AKVTGKEASCHDAVAGCPRIYDPVCGTDGITYANECVLCFENRKRIEPVLIRKGGPC; UniProt P09036 24-80, looked up)
mouse
  body weight change: induce weight loss
Fibroblasts [2]; 24 hr Spink1 incubation
  proliferation rate of fibroblast: high proliferation rate
Fibroblasts [2]; 48 hr incubation
  proliferation rate of fibroblast: increased rate disappears
Mouse lung [1]; healthy animals, no bleomycin pretreatment
  collagen accumulation (Sircol): can induce the collagen accumulation
Mouse lung [1]; mice with Spink1 treatment, 20 ug per injection
  collagen content (Sircol): accumulative collagen content
Mouse lung [3]; AT2, combo vs bleomycin
  gene set "Negative regulation of fibroblast proliferation" (GSEA): induces the down-regulation
  phagosome maturation gene set (GSEA): significantly down-regulated
Mouse lung [3]; mouse treated with Spink1
  expression level of Cdc42: significantly decreased expression level
Mouse lung [3]; [7]
  apoptosis of aSMA+ cells: arrested the apoptosis of aSMA+ cells
  wound healing pathway in fibroblasts: downregulated
Mouse lung [3]; regardless of the bleomycin pretreatment
  expression level of Ftl1: seems to vanish
Fibroblasts [4]
  expression level of Col1a1: not significantly changed
  expression level of Fibronectin: not significantly changed
  expression level of aSMA: elevated
Mouse lung [5]
  collagen deposition (trichome staining): high level of collagen accumulated
Mouse lung [6]
  alveolar damage and immune cell infiltration (H&E): notable alveolar damage and immune cell infiltration

## bleomycin [reference compound]
Mouse lung [3]; mouse lung scRNA-seq
  Cthrc1+ fibroblasts in stromal compartment: induces the overproduction of Cthrc1^+ fibroblasts
